Experimental data as given in US20250136606A1, “MODULATORS OF TRPML, THEIR COMPOSITIONS AND METHODS OF USE” (Caraway Therapeutics, Inc., priority 2021, published 2025).

Legend:
Type in all cases: cell-based
Conditions in all cases: fluorescent calcium assay
TRPML1 = TRPML1 (Homo sapiens, UniProt Q9GZU1); test: Fluorescent TRPML1 assay (Fluo4-AM calcium fluorescence in doxycycline-induced HEK-293 Trex cells)
How it was run: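 HEK-293 Trex cells stably carrying human TRPML1 (surface-trafficking mutant) were induced overnight with 0.5 ug/mL doxycycline, loaded with 1 micromolar Fluo4-AM, and suspended in Ringer's with 10 mM calcium. Compounds at 20 micromolar to 6 nanomolar final, half-log steps, triplicate; fluorescence 480/540 nm gave percent activity versus controls and EC50 by non-linear regression.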

TRPML2 = target: T1, TRPML2 (Homo sapiens, UniProt Q8IZK6); test: Fluorescent TRPML2 assay (performed as for TRPML1, substituting the TRPML2 subtype)
T1 construct: expressed in transfected cells
T1 sequence (Q8IZK6 1-566): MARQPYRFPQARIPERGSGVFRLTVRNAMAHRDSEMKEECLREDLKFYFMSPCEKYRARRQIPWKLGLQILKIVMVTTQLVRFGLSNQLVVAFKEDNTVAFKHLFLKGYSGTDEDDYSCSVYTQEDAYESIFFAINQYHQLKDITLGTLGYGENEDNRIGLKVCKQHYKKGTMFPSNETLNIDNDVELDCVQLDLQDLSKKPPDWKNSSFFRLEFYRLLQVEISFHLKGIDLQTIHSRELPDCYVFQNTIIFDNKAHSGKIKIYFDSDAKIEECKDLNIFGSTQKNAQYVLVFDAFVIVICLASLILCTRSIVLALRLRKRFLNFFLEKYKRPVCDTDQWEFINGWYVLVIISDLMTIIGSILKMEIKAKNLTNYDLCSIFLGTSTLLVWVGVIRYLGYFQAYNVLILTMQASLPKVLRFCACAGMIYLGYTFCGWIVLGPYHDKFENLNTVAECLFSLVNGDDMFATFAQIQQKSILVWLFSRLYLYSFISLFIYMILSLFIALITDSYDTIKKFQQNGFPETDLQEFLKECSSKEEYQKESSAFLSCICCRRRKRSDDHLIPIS
How it was run: (§1)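 Doxycycline-induced (0.5 ug/mL) HEK-293 Trex cells stably expressing surface-directed mutant channel were loaded with 1 micromolar Fluo4-AM, resuspended in Ringer's with 10 mM calcium and added to compound plates. Fluorescence (ex 480, em 540 nm) gave percent activity versus on-plate controls; EC50 by non-linear regression.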

TRPML3 = target: T2, TRPML3 (Homo sapiens, UniProt Q8TDD5); test: Fluorescent TRPML3 assay (performed as for TRPML1, substituting the TRPML3 subtype)
T2 construct: expressed in transfected cells
T2 sequence (Q8TDD5 1-553): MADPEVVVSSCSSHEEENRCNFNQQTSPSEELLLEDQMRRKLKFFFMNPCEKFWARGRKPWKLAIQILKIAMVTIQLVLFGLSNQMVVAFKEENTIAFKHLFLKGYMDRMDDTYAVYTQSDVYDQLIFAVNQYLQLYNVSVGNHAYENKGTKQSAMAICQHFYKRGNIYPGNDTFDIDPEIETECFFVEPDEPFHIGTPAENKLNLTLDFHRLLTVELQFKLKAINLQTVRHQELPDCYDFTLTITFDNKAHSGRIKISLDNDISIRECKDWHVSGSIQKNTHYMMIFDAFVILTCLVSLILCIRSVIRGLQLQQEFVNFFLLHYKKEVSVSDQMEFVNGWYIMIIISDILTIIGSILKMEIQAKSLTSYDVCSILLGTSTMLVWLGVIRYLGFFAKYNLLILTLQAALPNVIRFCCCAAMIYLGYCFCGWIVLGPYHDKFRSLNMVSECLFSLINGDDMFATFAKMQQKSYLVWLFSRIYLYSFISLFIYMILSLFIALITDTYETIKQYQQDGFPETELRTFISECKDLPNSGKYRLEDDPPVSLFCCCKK
How it was run: as §1

Chain of TRPML1 (Q9GZU1 whole entry L15A/L16A/L577A/L578A, form open): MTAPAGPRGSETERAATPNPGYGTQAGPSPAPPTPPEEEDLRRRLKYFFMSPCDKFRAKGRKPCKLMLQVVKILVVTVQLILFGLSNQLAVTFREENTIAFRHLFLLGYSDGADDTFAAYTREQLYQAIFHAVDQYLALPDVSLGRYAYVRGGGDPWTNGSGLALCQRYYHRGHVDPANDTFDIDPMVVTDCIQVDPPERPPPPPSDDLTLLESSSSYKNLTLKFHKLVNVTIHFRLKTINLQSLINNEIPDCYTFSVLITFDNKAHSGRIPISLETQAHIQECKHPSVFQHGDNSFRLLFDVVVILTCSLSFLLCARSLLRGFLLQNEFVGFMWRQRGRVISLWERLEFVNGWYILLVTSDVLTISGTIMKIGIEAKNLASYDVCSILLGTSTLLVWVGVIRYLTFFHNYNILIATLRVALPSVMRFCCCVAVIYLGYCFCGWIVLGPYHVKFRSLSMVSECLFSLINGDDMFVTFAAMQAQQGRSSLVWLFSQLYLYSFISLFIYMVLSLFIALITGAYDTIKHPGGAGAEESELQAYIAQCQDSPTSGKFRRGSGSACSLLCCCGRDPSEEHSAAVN

Row | EC50 (TRPML1) | EC50 (TRPML2) | EC50 (TRPML3) | SMILES
1 | < 100 nM | 100 to 500 nM | < 100 nM | C[C@H]1CN(C(=O)OC(C)(C)C)CCN1c1ncnc2c1c(N1CCCC1)cn2-c1cc(C#N)ccn1 [Compound 370, tert-butyl (S)-4-(7-(4-cyanopyridin-2-yl)-5-(pyrrolidin-1-yl)-7H-pyrrolo[2,3-d]pyrimidin-4-yl)-3-methylpiperazine-1-carboxylate]
2 | < 100 nM | 500 to 2000 nM | < 100 nM | C[C@H]1CN(C(=O)OCC(F)(F)F)CCN1c1ncnc2c1c(-c1ccccc1)cn2-c1cc(C#N)ccn1 [Compound 371, 2,2,2-trifluoroethyl (S)-4-(7-(4-cyanopyridin-2-yl)-5-phenyl-7H-pyrrolo[2,3-d]pyrimidin-4-yl)-3-methylpiperazine-1-carboxylate]
3 | 100 to 500 nM | 500 to 2000 nM | < 100 nM | Cc1c(F)cc(-n2cc(N3CCCC3)c3c(N4CCN(C(=O)OC(C)(C)C)C[C@@H]4C)ncnc32)cc1F [Compound 374, tert-butyl (S)-4-(7-(3,5-difluoro-4-methylphenyl)-5-(pyrrolidin-1-yl)-7H-pyrrolo[2,3-d]pyrimidin-4-yl)-3-methylpiperazine-1-carboxylate]
4 | < 100 nM | 100 to 500 nM | < 100 nM | CCN(CC)c1cn(-c2cccc(Cl)c2)c2ncnc(N3CCN(C(=O)OC(C)(C)C)[C@H](C)C3)c12 [Compound 375, tert-butyl (R)-4-(7-(3-chlorophenyl)-5-(diethylamino)-7H-pyrrolo[2,3-d]pyrimidin-4-yl)-2-methylpiperazine-1-carboxylate]
5 | < 100 nM | 100 to 500 nM | < 100 nM | C[C@H]1CN(C(=O)OC(C)(C)C)CCN1c1ncnc2c1c(C1CC1(F)F)cn2-c1cccc(C#N)c1 (stereo partly drawn) [Compound 376]
6 | < 100 nM | 100 to 500 nM | < 100 nM | C[C@@H]1CN(c2ncnc3c2c(C2CC2)cn3-c2cc(C#N)ccn2)CCN1C(=O)OCC(F)(F)F [Compound 377, 2,2,2-trifluoroethyl (R)-4-(7-(4-cyanopyridin-2-yl)-5-cyclopropyl-7H-pyrrolo[2,3-d]pyrimidin-4-yl)-2-methylpiperazine-1-carboxylate]
7 | < 100 nM | < 100 nM | < 100 nM | C[C@@H]1CN(c2ncnc3c2c(-c2ccccc2F)cn3-c2cc(C#N)ccn2)CCN1C(=O)OCC(F)(F)F [Compound 378, 2,2,2-trifluoroethyl (R)-4-(7-(4-cyanopyridin-2-yl)-5-(2-fluorophenyl)-7H-pyrrolo[2,3-d]pyrimidin-4-yl)-2-methylpiperazine-1-carboxylate]
8 | 500 to 2000 nM | > 2000 nM | 500 to 2000 nM | C[C@H]1COCCN1c1cn(-c2cccc(C#N)c2)c2ncnc(N3CCN(C(=O)OC(C)(C)C)C[C@@H]3C)c12 [Compound 379, tert-butyl (S)-4-(7-(3-cyanophenyl)-5-((S)-3-methylmorpholino)-7H-pyrrolo[2,3-d]pyrimidin-4-yl)-3-methylpiperazine-1-carboxylate]
9 | > 2000 nM | > 2000 nM | > 2000 nM | C[C@H]1CN(C(=O)OC(C)(C)C)CCN1c1ncnc2c1c(N1CCN(C)CC1)cn2-c1cc(C#N)ccn1 [Compound 381, tert-butyl (S)-4-(7-(4-cyanopyridin-2-yl)-5-(4-methylpiperazin-1-yl)-7H-pyrrolo[2,3-d]pyrimidin-4-yl)-3-methylpiperazine-1-carboxylate]
10 | < 100 nM | 100 to 500 nM | < 100 nM | C[C@@H]1CN(c2ncnc3c2c(C2CC2)cn3-c2cc(C#N)ccn2)CCN1C(=O)OC(C)(C)C [Compound 384, tert-butyl (R)-4-(7-(4-cyanopyridin-2-yl)-5-cyclopropyl-7H-pyrrolo[2,3-d]pyrimidin-4-yl)-2-methylpiperazine-1-carboxylate]
11 | 500 to 2000 nM | 100 to 500 nM | < 100 nM | C[C@H]1CN(C(=O)OC(C)(C)C)CCN1c1ncnc2c1c(C1CC1)cn2-c1ccc(F)c(OC(F)(F)F)c1 [Compound 387, tert-butyl (S)-4-(5-cyclopropyl-7-(4-fluoro-3-(trifluoromethoxy)phenyl)-7H-pyrrolo[2,3-d]pyrimidin-4-yl)-3-methylpiperazine-1-carboxylate]
12 | < 100 nM | < 100 nM | < 100 nM | C[C@@H]1CN(c2ncnc3c2c(N2CCC2)cn3-c2cc(C#N)ccn2)CCN1C(=O)OC(C)(C)C [Compound 388, tert-butyl (R)-4-(5-(azetidin-1-yl)-7-(4-cyanopyridin-2-yl)-7H-pyrrolo[2,3-d]pyrimidin-4-yl)-2-methylpiperazine-1-carboxylate]
13 | 500 to 2000 nM | 100 to 500 nM | < 100 nM | C[C@@H]1CN(C(=O)OC(C)(C)C)CCN1c1ncnc2c1c(-c1ccccc1F)cn2-c1cc(C#N)ccn1 [Compound 389, tert-butyl (R)-4-(7-(4-cyanopyridin-2-yl)-5-(2-fluorophenyl)-7H-pyrrolo[2,3-d]pyrimidin-4-yl)-3-methylpiperazine-1-carboxylate]
14 | < 100 nM | < 100 nM | < 100 nM | C[C@@H]1CN(c2ncnc3c2c(-c2ccccc2F)cn3-c2cc(C#N)ccn2)[C@@H](C)CN1C(=O)OC(C)(C)C [Compound 390]
15 | < 100 nM | 100 to 500 nM | < 100 nM | CC(C)(C)OC(=O)N1CCN(c2ncnc3c2c(-c2ccccc2F)cn3-c2cc(C#N)ccn2)CC1(C)C [Compound 391]
16 | < 100 nM | 100 to 500 nM | 100 to 500 nM | C[C@H]1CN(C(=O)OC(C)(C)C)CCN1c1ncnc2c1c(C1CC1)cn2C1CCC1 [Compound 398, tert-butyl (S)-4-(7-cyclobutyl-5-cyclopropyl-7H-pyrrolo[2,3-d]pyrimidin-4-yl)-3-methylpiperazine-1-carboxylate]
17 | 100 to 500 nM | 500 to 2000 nM | < 100 nM | C[C@H]1CN(C(=O)OC(C)(C)C)CCN1c1ncnc2c1c(N1CCCC1)cn2-c1cc(Cl)cc(C#N)c1 [Compound 399, tert-butyl (S)-4-(7-(3-chloro-5-cyanophenyl)-5-(pyrrolidin-1-yl)-7H-pyrrolo[2,3-d]pyrimidin-4-yl)-3-methylpiperazine-1-carboxylate]
18 | 500 to 2000 nM | > 2000 nM | 500 to 2000 nM | C[C@H]1CN(C(=O)OC(C)(C)C)CCN1c1ncnc2c1c(CN1CCCC1)cn2-c1cccc(C#N)c1 [Compound 400, tert-butyl (S)-4-(7-(3-cyanophenyl)-5-(pyrrolidin-1-ylmethyl)-7H-pyrrolo[2,3-d]pyrimidin-4-yl)-3-methylpiperazine-1-carboxylate]
19 | 100 to 500 nM | > 2000 nM | < 100 nM | C[C@H]1CN(C(=O)OC(C)(C)C)CCN1c1ncnc2c1c(N1CCCC1)cn2C1CCCC(F)(F)C1 (stereo partly drawn) [Compound 401, tert-butyl (3S)-4-(7-(3,3-difluorocyclohexyl)-5-(pyrrolidin-1-yl)-7H-pyrrolo[2,3-d]pyrimidin-4-yl)-3-methylpiperazine-1-carboxylate]
20 | < 100 nM | 500 to 2000 nM | < 100 nM | C[C@H]1CN(C(=O)OC(C)(C)C)CCN1c1ncnc2c1c(C1(C)CC1)cn2-c1cccc(C#N)c1 [Compound 402, tert-butyl (S)-4-(7-(3-cyanophenyl)-5-(1-methylcyclopropyl)-7H-pyrrolo[2,3-d]pyrimidin-4-yl)-3-methylpiperazine-1-carboxylate]
21 | 100 to 500 nM | 500 to 2000 nM | < 100 nM | Cc1cc(C#N)cc(-n2cc(C3CC3)c3c(N4CCN(C(=O)OC(C)(C)C)C[C@@H]4C)ncnc32)n1 [Compound 403, tert-butyl (S)-4-(7-(4-cyano-6-methylpyridin-2-yl)-5-cyclopropyl-7H-pyrrolo[2,3-d]pyrimidin-4-yl)-3-methylpiperazine-1-carboxylate]
